pKi: −log10 of the molar value.

The target in this assay is T1, Ketohexokinase (KHK) (Homo sapiens, UniProt P50053).
T1 construct: His tag; made in house; host or cells: E. coli
T1 sequence (P50053 1-298): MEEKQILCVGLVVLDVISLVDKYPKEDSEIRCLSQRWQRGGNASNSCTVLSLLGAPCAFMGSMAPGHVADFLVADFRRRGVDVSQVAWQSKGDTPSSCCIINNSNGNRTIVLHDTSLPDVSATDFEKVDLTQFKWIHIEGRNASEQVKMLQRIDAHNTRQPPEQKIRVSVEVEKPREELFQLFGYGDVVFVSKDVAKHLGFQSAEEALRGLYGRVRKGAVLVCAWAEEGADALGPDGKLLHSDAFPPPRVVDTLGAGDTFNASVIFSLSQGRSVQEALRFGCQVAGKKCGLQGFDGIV
Nature of the assay: measurement of activity in vitro of ketohexokinase inhibitor (Transcreener ADP2 TR-FRET Red Assay, ADP produced). The assay is classed as biochemical. The settings on record: KHK pre-reacted with inhibitor 30 minutes, then substrate (ATP, fructose) 15 minutes; Ki by Morrison equation. Here is the method:
Ketohexokinase (KHK) was expressed in E. Coli and purified using His tag. In order to measure the activity of the purified KHK, Transcreener ADP2 TR-FRET Red Assay kit of BellBrook Labs was used. A method of measuring the amount of ADP produced was used using TR-FRET after reacting a solution including a suitable concentration of KHK protein and ATP, and fructose for 15 minutes. In order to see the activity of a ketohexokinase (KHK) inhibitor, ketohexokinase (KHK) and a suitable concentration of an inhibitor were reacted first for 30 minutes, and then, reacted with a solution including the substrate of ketohexokinase (KHK) for 15 minutes. Then, reaction for TR-FRET was performed for 1 hour, and fluorescence was measured using Envision equipment of PerkinElmer. According to the optimization procedure of TR-FRET published by BellBrook Lab, the set value of the Envision equipment was determined.
The result values by concentration of the ketohexokinase (KHK) inhibitor were determined as the ratio of a wavelength of 665 nm and a wavelength of 615nm. The 665/615 ratio value by concentration of each inhibitor was converted to ADP concentration based on ADP standard curve, and inhibition activity Ki value was obtained using Morrison equation by statistical software (Prizm). Meanwhile, the Ki value is a value representing the binding affinity of the inhibitor and an enzyme, and a lower value means better inhibitory activity.
As to `C[C@H]1CCN1c1nc(N2CC(OCC(=O)N3CCNCC3)C2)cc(C(F)(F)F)n1` [Example 1, (S)-2-((1-(2-(2-methylazetidin-1-yl)-6-(trifluoromethyl)pyrimidin-4-yl)azetidin-3-yl)oxy)-1-(piperazin-1-yl)ethan-1-one], the pKi (in general, −log10 of the Ki, conventionally taken in molar units) is 7.00 to 8.00. With `C[C@H]1CCN1c1nc(N2CC(OCC(=O)N3CCNCC3)C2)c(Cl)c(C(F)(F)F)n1` [Example 2, (S)-2-((1-(5-chloro-2-(2-methylazetidin-1-yl)-6-(trifluoromethyl)pyrimidin-4-yl)azetidin-3-yl)oxy)-1-(piperazin-1-yl)ethan-1-one], the pKi was no less than 8.00. To `C[C@H]1CCN1c1nc(N2CC(OCC(=O)N3CCNCC3)C2)c2c(n1)C(F)(F)CC2` [Example 3, (S)-2-((1-(7,7-difluoro-2-(2-methylazetidin-1-yl)-6,7-dihydro-5H-cyclopenta[d]pyrimidin-4-yl)azetidin-3-yl)oxy)-1-(piperazin-1-yl)ethan-1-one] belongs no less than 8.00. For the compound `C[C@H]1CCN1c1nc(N2CC(OCC(=O)N3CCNCC3)C2)c2c(n1)C(F)(F)CCC2` [Example 4], the pKi was 7.00 to 8.00. To `C[C@H]1CCN1c1nc(N2C[C@@H](OCC(=O)N3CCNCC3)[C@@H]2C)c2c(n1)C(F)(F)CC2` [Example 5, 2-(((2S,3R)-1-(7,7-difluoro-2-((S)-2-methylazetidin-1-yl)-6,7-dihydro-5H-cyclopenta[d]pyrimidin-4-yl)-2-methylazetidin-3-yl)oxy)-1-(piperazin-1-yl)ethan-1-one] belongs 7.00 to 8.00; to `C[C@H]1CCN1c1nc(N2CC[C@H](OCC(=O)N3CCNCC3)C2)cc(C(F)(F)F)n1` [Example 6, 2-(((S)-1-(2-((S)-2-methylazetidin-1-yl)-6-(trifluoromethyl)pyrimidin-4-yl)pyrrolidin-3-yl)oxy)-1-(piperazin-1-yl)ethan-1-one], 6.00 to 7.00. The compound `C[C@H]1CCN1c1nc(N2CC[C@H](OCC(=O)N3CCNCC3)C2)c2c(n1)C(F)(F)CC2` [Example 7, 2-(((2S,3R)-1-(7,7-difluoro-2-((S)-2-methylazetidin-1-yl)-6,7-dihydro-5H-cyclopenta[d]pyrimidin-4-yl)pyrrolidin-3-yl)oxy)-1-(piperazin-1-yl)ethan-1-one] showed a pKi of no less than 8.00.

The compound `C[C@H]1CCN1c1nc(N2CC[C@@H](OCC(=O)N3CCNCC3)C2)c2c(n1)C(F)(F)CC2` [Example 8, 2-(((R)-1-(7,7-difluoro-2-((S)-2-methylazetidin-1-yl)-6,7-dihydro-5H-cyclopenta[d]pyrimidin-4-yl)pyrrolidin-3-yl)oxy)-1-(piperazin-1-yl)ethan-1-one] showed a pKi of no less than 8.00. The figure for `C[C@H]1CCN1c1nc(N2CC[C@H](CC(=O)N3CCNCC3)C2)c2c(n1)C(F)(F)CC2` [Example 9] is no less than 8.00; for `C[C@H]1CCN1c1nc(N2CCC(OCC(=O)N3CCNCC3)CC2)c2c(n1)C(F)(F)CC2` [Example 10, (S)-2-((1-(7,7-difluoro-2-(2-methylazetidin-1-yl)-6,7-dihydro-5H-cyclopenta[d]pyrimidin-4-yl)piperidin-4-yl)oxy)-1-(piperazin-1-yl)ethan-1-one] it is no less than 8.00. The compound `C[C@H]1CCN1c1nc(N2CCN(CC(=O)N3CCNCC3)CC2)cc(C(F)(F)F)n1` [Example 11, (S)-2-(4-(2-(2-methylazetidin-1-yl)-6-(trifluoromethyl)pyrimidin-4-yl)piperazin-1-yl)-1-(piperazin-1-yl)ethan-1-one] showed a pKi of no less than 8.00. The figure for `C[C@H]1CCN1c1nc(N2CCN(CC(=O)N3CCNCC3)C(=O)C2)cc(C(F)(F)F)n1` [Example 12, (S)-4-(2-(2-methylazetidin-1-yl)-6-(trifluoromethyl)pyrimidin-4-yl)-1-(2-oxo-2-(piperazin-1-yl)ethyl)piperazin-2-one] is 7.00 to 8.00; for `C[C@H]1CCN1c1nc(N2CCN(CC(=O)N3CCNCC3)CC2)c2c(n1)C(F)(F)CC2` [Example 13, (S)-2-4-(7,7-difluoro-2-(2-methylazetidin-1-yl)-6,7-dihydro-5H-cyclopenta[d]pyrimidin-1-yl)-1-(piperazin-1-yl)ethan-1-one] it is no less than 8.00.

Values taken from patent publication EP4434982A1, “(S)-2-(2-METHYLAZETIDIN-1-YL)PYRIMIDINE DERIVATIVE AND PHARMACEUTICAL COMPOSITION COMPRISING SAME” (LG Chem, Ltd., priority 2021, dated 2023).
